Like-named read-outs stand apart in the source and are kept apart here.
Columns and labels:
Type in all cases: cell-based
[1] = tested on: wide-type HIV-1 (strain IIIB); assay: Anti-HIV-1 activity in MT-4 cells (MTT method), wild-type
Description: (§1) Selected compounds were screened for inhibitory activity against HIV-1 using MTT method as describe previously by Christophe. Pannecouque et al. Nat. Protoc. 3 (2008) 427-434, and Rudi Pauwels et al. J. Virol. Methods 20 (1988) 309-321. Briefly, MT-4 cells infected with HIV-1 can only survive for 5 to 7 days without any treatment, but when HIV-1 inhibitors were added, they can protect MT-4 cell from cytopathic. Serial solution of compounds was added to MT-4 cells after infected with HIV-1, MTT method was used to detect the survival rate after culture for 5 to 7 days. EC50 value was defined as compound concentration required to achieve 50% protection of MT-4 cells against HIV-1-induced cytopathic effect. In vitro anti-HIV-1 assay was supported by Rega Institute for Medical Research.
(§2) • (1) MT-4 cells infected with HIV-1 viral strains (IIIB, L100I, K103N, Y181C, Y188L, E138K, F227L/V106A, Y181C/K103N) were provided by Rega Institute for Medical Research, Katholieke Universiteit Leuven, Belgium. • (2) MTT and formazan: sigma Chemical Co. • (3) Preparation of compounds: Stock solutions (10×final concentration) of test compounds is diluted with double distilled water for 5 folds and 5 concentrations of one compound are prepared. • (4) Reference drugs: Nevirapine (NVP), Efavirenz (EFV), Etravirine (ETV), Rilpivirine (RPV) and Azidothymidine (AZT). • (5) Method (MTT method): Serial five-fold dilutions of test compounds were added to cultured MT-4 cells infected with HIV-1, after 5 to 7 days, MTT was added and cultured for a few hours. Medium was removed and lysate was added followed by formazan, OD value was determined in 690 nm and 540 nm by microplate reader, and EC50 value was calculated. 2. Method
(§3) The MTT method was described briefly as follows: 96-well plastic microtiter trays were filled with 100 μL of complete medium. Subsequently, serial of tested compounds was added (25 μL) to two series of triplicate wells so as to allow simultaneous evaluation of their effects on HIV- and mock infected cells. 50 μL of 1×10^4 cells/mL MT-4 cells were added. After cultured for 5 days at 37° C. in humidified atmosphere in the presence of 5% CO2, MTT was added and cultured for another 2 h, then medium was removed and 100 μL isopropanol solution was added to lyse the cells. Formazan crystals were added and vibrated platform shaker for 10 min to solubilize the formazan crystals. Absorbances at 690 nm and 540 nm were read by using spectrophotometrically. EC50 was defined as the concentration achieving 50% protection from the cytopathic effect of the virus in infected cells.
(§4) Selected compounds prepared as described above were assayed in MT-4 cells infected with wide-type IIIB, L100I, K103N, Y181C, Y188L, E138K or double mutant RES056 (Y181C/K103N) and F227L/V106A HIV-1 strains. Nevirapine, Efavirenz, Etravirine, Rilpivirine and Azidothymidine were selected as reference drugs. The results were listed below as EC50 value (nM)

[2] = tested on: HIV-1 L100I mutant strain; assay: Anti-HIV-1 activity in MT-4 cells (MTT method), L100I; conditions: for EC50: Human immunodeficiency virus 1, MT4, read-out: EC50 (nM) L100I
Description: as §1, §2, §3, §4

[3] = tested on: HIV-1 K103N mutant strain; assay: Anti-HIV-1 activity in MT-4 cells (MTT method), K103N; conditions: for EC50: Human immunodeficiency virus 1, MT4, read-out: EC50 (nM) K103N
Description: as §1, §2, §3, §4

[4] = tested on: HIV-1 Y181C mutant strain; assay: Anti-HIV-1 activity in MT-4 cells (MTT method), Y181C; conditions: for EC50: Human immunodeficiency virus 1, MT4, read-out: EC50 (nM) Y181C
Description: as §1, §2, §3, §4

[5] = tested on: HIV-1 Y188L mutant strain; assay: Anti-HIV-1 activity in MT-4 cells (MTT method), Y188L; conditions: for EC50: Human immunodeficiency virus 1, MT4, read-out: EC50 (nM) Y188L
Description: as §1, §2, §3, §4

[6] = tested on: HIV-1 E138K mutant strain; assay: Anti-HIV-1 activity in MT-4 cells (MTT method), E138K; conditions: Human immunodeficiency virus 1, MT4, read-out: EC50 (nM) E138K
Description: as §1, §2, §3, §4

[7] = tested on: HIV-1 F227L/V106A double mutant strain; assay: Anti-HIV-1 activity in MT-4 cells (MTT method), F227L/V106A; conditions: for EC50: Human immunodeficiency virus 1, MT4, read-out: EC50 (nM) F227L/V106A
Description: as §1, §2, §3, §4

[8] = tested on: HIV-1 double mutant RES056 (Y181C/K103N); assay: Anti-HIV-1 activity in MT-4 cells (MTT method), RES056; conditions: for EC50: Human immunodeficiency virus 1, MT4, read-out: EC50 (nM) Y181C/K103N
Description: as §1, §2, §3, §4

[9] = Human immunodeficiency virus 1, IIIB, MT4, read-out: EC50 (nM) wt
[10] = Human immunodeficiency virus 1, MT4, MT-4 cells, 50% protection against HIV-1-induced cytopathicity, wt (IIIB), read-out: EC50 (nM) wt

Row | Structure (SMILES) | EC50 [1, 9] | EC50 [2] | EC50 [3] | EC50 [4] | EC50 [5] | EC50 [6] | EC50 [7] | EC50 [8] | EC50 [1, 10] | fold more potent than ETV against L100I ([2]; L100I, relative to ETV) | Activity against K103N compared with ETV ([3]; K103N, relative to ETV) | fold more potent than ETV against Y181C ([4]; Y181C, relative to ETV) | Activity against Y188L compared with ETV ([5]; Y188L, relative to ETV) | fold more potent than ETV against F227L/V106A ([7]; F227L/V106A, relative to ETV) | fold more potent than ETV against Y181C/K103N ([8]; Y181C/K103N, relative to ETV)
1 | Cc1cc(C#N)cc(C)c1Oc1nc(NC2CCN(Cc3ccc(S(N)(=O)=O)cc3)CC2)nc2c1SCCC2 [IIA-1-1, 4-((4-((4-(4-cyano-2,6-dimethylphenoxy)-7,8-dihydro-6H-thiopyrano[3,2-d]pyrimidin-2-yl)amino)piperidin-1-yl)methyl)benzenesulfonamide] | < 10 nM | 10 to 100 nM | < 10 nM | 10 to 100 nM | < 10 nM | < 10 nM | 10 to 100 nM | 10 to 100 nM |  |  |  |  |  |  | 
2 | Cc1cc(/C=C/C#N)cc(C)c1Oc1nc(Nc2ccc(C#N)cc2)nc2c1SCCC2 [IA-1-2, (E)-4-((4-(4-(2-cyanovinyl)-2,6-dimethylphenoxy)-7,8-dihydro-6H-thiopyrano[3,2-d]pyrimidin-2-yl)amino)benzonitrile] | < 10 nM | < 10 nM | < 10 nM | 10 to 100 nM | 10 to 100 nM | 10 to 100 nM | 10 to 100 nM | 10 to 100 nM |  |  |  |  |  |  | 
3 | Cc1cc(C#N)cc(C)c1Oc1nc(NC2CCN(c3cccc(C#N)c3)CC2)nc2c1SCCC2 [IIC-1-1, 4-((2-((1-(3-cyanophenyl)piperidin-4-yl)amino)-7,8-dihydro-6H-thiopyrano[3,2-d]pyrimidin-4-yl)oxy)-3,5-dimethylbenzonitrile] | 10 to 100 nM | > 100 nM | 10 to 100 nM | > 100 nM | > 100 nM | > 100 nM | > 100 nM | > 100 nM |  |  |  |  |  |  | 
4 | Cc1ccnc2c1NC(=O)c1cccnc1N2C1CC1 [NVP, Nevirapine, reference compound] |  | > 100 nM | > 100 nM | > 100 nM | > 100 nM | > 100 nM | > 100 nM | > 100 nM | > 100 nM |  |  |  |  |  | 
5 | Cc1cc(C#N)cc(C)c1Oc1nc(NC2CCN(Cc3ccc(S(C)(=O)=O)cc3)CC2)nc2c1SCCC2 [IIA-1-11, 3,5-dimethyl-4-((2-((1-(4-(methylsulfonyl)benzyl)piperidin-4-yl)amino)-7,8-dihydro-6H-thiopyrano[3,2-d]pyrimidin-4-yl)oxy)benzonitrile] | < 10 nM | 10 to 100 nM | < 10 nM | 10 to 100 nM | 10 to 100 nM | 10 to 100 nM | 10 to 100 nM | 10 to 100 nM |  |  |  |  |  |  | 
6 | Cc1cc(C#N)cc(C)c1Oc1nc(NC2CCN(Cc3ccc(C(N)=O)cc3)CC2)nc2c1SCCC2 [IIA-1-8, 4-((4-((4-(4-cyano-2,6-dimethylphenoxy)-7,8-dihydro-6H-thiopyrano[3,2-d]pyrimidin-2-yl)amino)piperidin-1-yl)methyl)benzamide] | < 10 nM | 10 to 100 nM | < 10 nM | 10 to 100 nM | 10 to 100 nM | 10 to 100 nM | > 100 nM | 10 to 100 nM |  |  |  |  |  |  | 
7 | Cc1cc(C#N)cc(C)c1Oc1nc(NC2CCN(Cc3ccc(NS(C)(=O)=O)cc3)CC2)nc2c1SCCC2 [IIA-1-14, N-(4-((4-((4-(4-cyano-2,6-dimethylphenoxy)-7,8-dihydro-6H-thiopyrano[3,2-d]pyrimidin-2-yl)amino)piperidin-1-yl)methyl)phenyl) methanesulfonamide] | < 10 nM | 10 to 100 nM | < 10 nM | < 10 nM | 10 to 100 nM | < 10 nM | > 100 nM | > 100 nM |  |  |  |  |  |  | 
8 | Cc1cc(C#N)cc(C)c1Oc1nc(NC2CCN(Cc3cccc(C(N)=O)c3)CC2)nc2c1SCCC2 [IIA-1-9, 3-((4-((4-(4-cyano-2,6-dimethylphenoxy)-7,8-dihydro-6H-thiopyrano[3,2-d]pyrimidin-2-yl)amino)piperidin-1-yl)methyl)benzamide] | < 10 nM | 10 to 100 nM | 10 to 100 nM | 10 to 100 nM | 10 to 100 nM | 10 to 100 nM | > 100 nM | > 100 nM |  |  |  |  |  |  | 
9 | O=C1Nc2ccc(Cl)cc2[C@@](C#CC2CC2)(C(F)(F)F)O1 [EFV, Efavirenz, reference compound] |  | 10 to 100 nM | 10 to 100 nM | < 10 nM | 10 to 100 nM | < 10 nM | 10 to 100 nM | > 100 nM | < 10 nM |  |  |  |  |  | 
10 | CCOC(=O)c1ccc(CN2CCC(Nc3nc4c(c(Oc5c(C)cc(C#N)cc5C)n3)SCCC4)CC2)cc1 [IIA-1-10, ethyl 4-((4-((4-(4-cyano-2,6-dimethylphenoxy)-7,8-dihydro-6H-thiopyrano[3,2-d]pyrimidin-2-yl)amino)piperidin-1-yl)methyl)benzoate] | 10 to 100 nM | > 100 nM | 10 to 100 nM | > 100 nM | > 100 nM | > 100 nM | > 100 nM | > 100 nM |  |  |  |  |  |  | 
11 | Cc1cc(C#N)cc(C)c1Oc1nc(NC2CCN(Cc3cccc(C#N)c3)CC2)nc2c1SCCC2 [IIA-1-6, 4-((2-((1-(3-cyanobenzyl)piperidin-4-yl)amino)-7,8-dihydro-6H-thiopyrano[3,2-d]pyrimidin-4-yl)oxy)-3,5-dimethylbenzonitrile] | < 10 nM | > 100 nM | 10 to 100 nM | 10 to 100 nM | 10 to 100 nM | 10 to 100 nM | > 100 nM | > 100 nM |  |  |  |  |  |  | 
12 | Cc1cc(/C=C/C#N)cc(C)c1Oc1nc(NC2CCN(Cc3ccc(S(N)(=O)=O)cc3)CC2)nc2c1SCCC2 [IIA-1-3, (E)-4-((4-((4-(4-(2-cyanovinyl)-2,6-dimethylphenoxy)-7,8-dihydro-6H-thiopyrano[3,2-d]pyrimidin-2-yl)amino)piperidin-1-yl)methyl)benzenesulfonamide] | < 10 nM | < 10 nM | < 10 nM | < 10 nM | 10 to 100 nM | 10 to 100 nM | < 10 nM | 10 to 100 nM |  | 2 fold | comparable | 2 fold | comparable | 2 fold | 2 fold
13 | Cc1cc(C#N)cc(C)c1Oc1nc(NC2CCN(Cc3ccc(C#N)cc3)CC2)nc2c1SCCC2 [IIA-1-5, 4-((2-((1-(4-cyanobenzyl)piperidin-4-yl)amino)-7,8-dihydro-6H-thiopyrano[3,2-d]pyrimidin-4-yl)oxy)-3,5-dimethylbenzonitrile] | < 10 nM | 10 to 100 nM | 10 to 100 nM | 10 to 100 nM | 10 to 100 nM | 10 to 100 nM | > 100 nM | > 100 nM |  |  |  |  |  |  | 
14 | Cc1cc(C#N)cc(C)c1Oc1nc(NC2CCN(Cc3cccc(S(N)(=O)=O)c3)CC2)nc2c1SCCC2 [IIA-1-4, 3-((4-((4-(4-cyano-2,6-dimethylphenoxy)-7,8-dihydro-6H-thiopyrano[3,2-d]pyrimidin-2-yl)amino)piperidin-1-yl)methyl)benzenesulfonamide] | < 10 nM | > 100 nM | 10 to 100 nM | 10 to 100 nM | 10 to 100 nM | 10 to 100 nM | 10 to 100 nM | > 100 nM |  |  |  |  |  |  | 

Source: US10590145B2, “Tetrahydrothiopyranopyrimidine derivatives as anti-HIV agent” (SHANDONG UNIVERSITY, priority 2016, dated 2020)
